Measurements reported in US6448287B1 (priority 1999, dated 2002).
Values after ≈ are worked out from the molar mass of the structure shown. Where two headings read alike, the source gives them in different places.

Experiments:
[1] = Toxicity test in cell monolayers, ECV-304; type: cell-based; details: human, ECV-304 endothelial cell monolayer; read-out: LC50
Description: (§1) In solid tumors, proliferating cells are sometimes more sensitive to treatment than quiescent, non-proliferating cells. To investigate this in cell monolayers, we used sparse plating densities (6K/well in a 96 well plate) to allow cell proliferation and confluent densities (24K/well in a 96 well plate) to simulate quiescent cells. Cells were plated in 96 well plates at sparse or confluent densities and then incubated four days in growth medium supplemented with various doses of antioxidants. After incubation, cell numbers were determined by standard […] techniques. Data were analyzed by scaling the cell number at any given antioxidant dose to that of the control and fitting the dose-response data to a sigmoid curve. Values of LC50, the dose required to reduce cell number by fifty percent relative to untreated controls, were computed from the sigmoid data fit.

[2] = tested on: SW620 (Colon Adenocarcinoma); test: Toxicity test in cell monolayers, SW620; type: cell-based; details: Homo sapiens, SW-620, 96 h, lipoic acid as sodium salt
Description: as §1

[3] = tested on: SK-MEL (Melanoma); test: Toxicity test in cell monolayers, SK-MEL; type: cell-based; details: Homo sapiens, 96 h, lipoic acid as sodium salt
Description: as §1

[4] = tested on: Mia PaCa (Pancreatic Carcinoma); test: Toxicity test in cell monolayers, Mia PaCa; type: cell-based; details: Homo sapiens, MIA PaCa-2, 96 h, lipoic acid as sodium salt
Description: as §1

[5] = tested on: MCF-7 (Breast Carcinoma); test: Toxicity test in cell monolayers, MCF-7; type: cell-based; details: Homo sapiens, MCF7, 96 h, lipoic acid as sodium salt
Description: as §1

[6] = male, human, in vivo, iv
Description: (§2) A person with diagnosed metastatic prostate cancer was infused intravenously with […] sodium ascorbate in sterile water over an eighty minute period. Blood samples were taken at regular intervals over a twenty-four hour period, frozen, and then analyzed for ascorbate content using a colorimetric assay. The ascorbate plasma concentration was analyzed in a prostate cancer patient given a 60 gram intravenous infusion of sodium ascorbate over an 80 minute period. […] The plasma volume Vp, was fixed at 30 dl. […] Predicted plasma ascorbate levels from a two compartment, four parameter pharmacokinetic model of ascorbate transport and clearance in blood. […] Infusion is modeled as continuous. Parameter values for the compartmental model are as follows: KX=0.124 min^−1, K1=0.124 min^−1, K2=0.038 min^−1. The plasma volume Vp, was fixed at 30 dl. A phase one clinical trial is currently under way to assess the safety of continuous ascorbate infusions, and is currently near completion.

[7] = Phase one clinical trial of continuous ascorbate infusions (safety); details: doses up to 50 g/day
Description: as §2

[8] = tested on: SW620 hollow fiber tumors
Description: (§3) SW620 hollow fiber solid tumors were grown as previously described. […] SW620 colon carcinoma cells were prepared in cell culture medium at a concentration of 10^7 cells/ml and injected into the hollow fibers. The fibers were then heat sealed at roughly 2 cm intervals to trap the cells inside them. SW620 hollow fibers were then cultured in Petri dishes for three days. After three days, the hollow fibers are transferred to stirred medium either by moving them to spinner flasks containing 50 ml cell culture medium stirred at 150 rpm by a magnetic stirrer or by transferring them to six-well plates placed on an orbital shaker at 150 rpm. Cell culture medium was replenished on days three and six. […] After one or two days incubation on an orbital shaker, the hollow fiber tumors were rinsed and the cells were extruded out of the fibers with trypsin. The cylindrical tumor cell mass was exposed to trypsin while pipetting up and down to form a single cell suspension. Cell culture medium was then added to stop trypsin action. Surviving fractions were determined as previously described. Briefly, cells were transferred to ninety-six-well plates at a concentration of 5000 cells per well and incubated for six days. The surviving cell population was then measured using the SRB colorimetric assay. Surviving fraction was expressed as the ratio of the SRB staining at a given dose to that for cells from untreated hollow fiber tumors.
(§4) The surviving fractions without ascorbate (denoted SFO) were analyzed along with the doses of ascorbate required to reduce the surviving fraction to half the SFO value, denoted LC50. Standard deviations for SFO and LC50 values were analyzed by the curve-fitting program KalediaGraph (Synergy Software).
(§5) Data from three replicate experiments were pooled. The doses of ascorbate required to reduce the surviving fraction to half the control value were denoted as LC50. Standard deviations on LC50 values were estimated by the curve-fitting program kaleidaGraph (Synergy Software).

[9] = tested on: SW620 hollow fiber tumors; details: hollow fiber solid tumor model, background statement; cited from earlier work
[10] = tested on: SW620 hollow fiber tumors; test: cells; details: Homo sapiens, SW-620, read-out: ascorbate LC50 (dose reducing surviving fraction to half the control value)
Description: as §3, §4, §5

[11] = humans, intravenous infusion, peak level; cited from earlier work
[12] = tested on: B16 melanoma; test: Murine tumor model: B16 melanoma in C57 mice; type: in vivo
Description: C57 mice were divided into groups of twenty and inoculated by B16 melanoma cells subcutaneously. After forty-eight hours, treatments were administered once every other day for a five week period by subcutaneous injection near the tumor site. Tumor size was measured on days ten, seventeen, and twenty-four of treatment. […]

O=C1O[C@H]([C@@H](O)CO)C(O)=C1O [Ascorbate, ascorbic acid]
CC50 at 4 days [1]: 1490 ± 160 µg/mL (≈ 8.46 mM)
CC50 ([2]; read-out: LC50, SW620, confluent density (24K/well), four days incubation): 390 ± 140 µg/mL
CC50 ([2]; read-out: LC50, SW620, sparse density (6K/well), four days incubation): 300 ± 40 µg/mL
CC50 ([3]; read-out: LC50, SK-MEL, confluent density (24K/well), four days incubation): 780 ± 160 µg/mL
CC50 ([3]; read-out: LC50, SK-MEL, sparse density (6K/well), four days incubation): 150 ± 20 µg/mL
CC50 ([4]; read-out: LC50, Mia PaCa, confluent density (24K/well), four days incubation): 3080 ± 330 µg/mL
CC50 ([4]; read-out: LC50, Mia PaCa, sparse density (6K/well), four days incubation): 530 ± 60 µg/mL
CC50 ([5]; read-out: LC50, MCF-7, confluent density (24K/well), four days incubation): 230 ± 30 µg/mL
CC50 ([5]; read-out: LC50, MCF-7, sparse density (6K/well), four days incubation): 120 ± 10 µg/mL
K1 [6]: 0.124 min⁻¹
K2 [6]: 0.038 min⁻¹
KX [6]: 0.124 min⁻¹
peak plasma value [6]: 460 mg/dL
safety of continuous ascorbate infusions [7]: found safe
surviving fraction ([8]; 52 mg/dL ascorbate for forty-eight hours, based on the data in EXAMPLE 2): greater than ninety percent
ascorbate concentration that may be required to effectively treat tumors [9]: > 500 mg/dL
CC50 [10]: 4900 µg/mL (≈ 27.8 mM)
maximum plasma ascorbic acid concentration generally achievable [11]: roughly 500 mg/dL

O=C(O)CCCCC1CCSS1 (racemic) [Lipoic Acid, DL-α-Lipoic Acid (DL-6,8-Thioctic Acid)]
Animal Survival (percent) ([12]; day twenty-four, control 70%): 90%
Animal Survival (survivors/group) ([12]; day twenty-four, groups of twenty, control 14/20): 18/20
tumor size compared with the control group ([12]; measured on days ten, seventeen and twenty-four of treatment): significantly smaller
toxic effect of lipoic acid itself (surviving fraction without ascorbate, SFO) ([8]; lipoic acid 5 mg/dl or 20 mg/dl, 48 hours): exhibited a toxic effect
